Measurements taken from the Kinase Knowledgebase extract (Sharma et al. 2016).
Values joined by “and” are separate entries in the source; they are usually repeats but may differ in a detail not shown here. Identical values can stand only once.

Target: MAPK14 (human) (UniProt Q16539)
Test: Inhibition of LPS Stimulated TNF Production by U937 Cells
Settings: for inhibition: concentration not given here

Sequence of MAPK14 (human) (Q16539 whole entry, looked up): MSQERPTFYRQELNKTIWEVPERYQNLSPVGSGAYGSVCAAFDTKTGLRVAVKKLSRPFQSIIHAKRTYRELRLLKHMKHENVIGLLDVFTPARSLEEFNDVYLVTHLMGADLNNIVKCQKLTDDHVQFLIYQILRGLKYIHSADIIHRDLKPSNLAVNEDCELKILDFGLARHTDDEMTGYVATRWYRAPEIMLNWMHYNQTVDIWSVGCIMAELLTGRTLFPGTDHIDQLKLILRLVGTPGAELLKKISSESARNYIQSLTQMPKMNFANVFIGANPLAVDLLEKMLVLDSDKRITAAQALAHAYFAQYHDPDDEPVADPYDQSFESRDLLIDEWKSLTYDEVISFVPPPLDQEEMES

SMILES	inhibition [%]	IC50
C#CCNc1n[nH]c(-c2ccc(F)cc2)c1-c1ccncc1	–	300 nM
C[C@H](NS(=O)(=O)c1ccc(Br)cc1)c1[nH]nc(-c2ccc(F)cc2)c1-c1ccncc1	87	–
CC(C)c1cc(C(C)C)c(C(=O)N[C@@H](C)c2[nH]nc(-c3ccc(F)cc3)c2-c2ccncc2)c(C(C)C)c1	42	–
C[C@@H](NS(=O)(=O)c1cccc2cccnc12)c1[nH]nc(-c2ccc(F)cc2)c1-c1ccncc1	71	–
Cc1ccc(S(=O)(=O)N[C@@H](Cc2ccccc2)C(=O)NCCCc2[nH]nc(-c3ccc(F)cc3)c2-c2ccncc2)cc1	36	–
O=C(c1ccccc1Cl)N1CCC(c2[nH]nc(-c3ccc(F)cc3)c2-c2ccncc2)CC1	85	–
C[C@@H](NS(=O)(=O)c1ccc(CNC(=O)c2ccccc2)s1)c1[nH]nc(-c2ccc(F)cc2)c1-c1ccncc1	88	–
O=C(N[C@H](Cc1ccccc1)c1[nH]nc(-c2ccc(F)cc2)c1-c1ccncc1)[C@@H]1CCCN1	11	–
C[C@@H](NS(=O)(=O)c1cccc(C(F)(F)F)c1)c1[nH]nc(-c2ccc(F)cc2)c1-c1ccncc1	97	–
C[C@@H](NC(=O)N1CCOCC1)c1[nH]nc(-c2ccc(F)cc2)c1-c1ccncc1	30	–
C[C@H](NS(=O)(=O)c1ccc(Cl)cc1)c1[nH]nc(-c2ccc(F)cc2)c1-c1ccncc1	88	–
CNC(=O)CC[C@H](NC(=O)Nc1ccccc1F)c1[nH]nc(-c2ccc(F)cc2)c1-c1ccncc1	–	> 1000 nM
O=S(=O)(NCc1[nH]nc(-c2ccc(F)cc2)c1-c1ccncc1)c1ccc(S(=O)(=O)c2ccccc2)s1	64	–
O=C(C1CC1)N1CCC(c2[nH]nc(-c3ccc(F)cc3)c2-c2ccncc2)CC1	–	270 nM
C[C@H](NS(=O)(=O)c1cccc(Br)c1)c1[nH]nc(-c2ccc(F)cc2)c1-c1ccncc1	79	–
C[C@@H](NS(=O)(=O)c1cn(C)cn1)c1[nH]nc(-c2ccc(F)cc2)c1-c1ccncc1	80	–
CC(C)C(=O)N[C@@H](C)c1[nH]nc(-c2ccc(F)cc2)c1-c1ccncc1	–	1010 nM
Fc1ccc(CNc2cc(-c3cn(CCN4CCOCC4)nc3-c3ccc(F)cc3)ccn2)cc1	–	180 nM and 450 nM
CC(Nc1cc(-c2c[nH]nc2-c2ccc(F)cc2)ccn1)c1ccc(F)cc1 (stereo not given)	–	4.4 nM
C[C@H](NS(C)(=O)=O)c1[nH]nc(-c2ccc(F)cc2)c1-c1ccncc1	–	1700 nM
C[C@H](NS(=O)(=O)c1ccc(-c2ccon2)s1)c1[nH]nc(-c2ccc(F)cc2)c1-c1ccncc1	95	–

SMILES	inhibition [%]	IC50
C[C@H](NC(=O)N1CCCC1)c1[nH]nc(-c2ccc(F)cc2)c1-c1ccncc1	–	2170 nM
CNC(=O)N[C@@H](C)c1[nH]nc(-c2ccc(F)cc2)c1-c1ccncc1	79	–
Cn1cc(-c2ccncc2)c(-c2ccc(C(F)(F)F)cc2)n1	–	1200 nM
C[C@@H](NS(=O)(=O)c1cccc2cnccc12)c1[nH]nc(-c2ccc(F)cc2)c1-c1ccncc1	74	–
C[C@@H](NS(=O)(=O)c1ccc(S(=O)(=O)c2ccccc2)s1)c1[nH]nc(-c2ccc(F)cc2)c1-c1ccncc1	88	–
Cc1c(-c2ccncc2)c(-c2ccc(F)cc2)nn1CC(=O)NCCc1cccs1	36	–
Cc1noc(C)c1S(=O)(=O)N[C@@H](C)c1[nH]nc(-c2ccc(F)cc2)c1-c1ccncc1	74	–
CC1(C)[C@H]2CC[C@@]1(CS(=O)(=O)NCc1[nH]nc(-c3ccc(F)cc3)c1-c1ccncc1)C(=O)C2	20	–
CC(C)OC(=O)N[C@@H](C)c1[nH]nc(-c2ccc(F)cc2)c1-c1ccncc1	53	–
C[C@H](NS(=O)(=O)c1cccc2ccccc12)c1[nH]nc(-c2ccc(F)cc2)c1-c1ccncc1	80	–
Cc1n[nH]c(-c2ccc3c(c2)OCO3)c1-c1ccncc1	–	1690 nM
COc1cccc(-c2[nH]nc(C)c2-c2ccncc2)c1	–	477 nM
C[C@H](NS(=O)(=O)C[C@]12CC[C@@H](CC1=O)C2(C)C)c1[nH]nc(-c2ccc(F)cc2)c1-c1ccncc1	60	–
Cn1cc(-c2ccnc(F)c2)c(-c2ccc(F)cc2)n1	–	456 nM
O=C(c1ccccc1F)N1CCC(c2[nH]nc(-c3ccc(F)cc3)c2-c2ccncc2)CC1	–	410 nM
Cc1ccc(S(=O)(=O)N[C@@H](Cc2ccccc2)C(=O)N[C@@H](C)c2[nH]nc(-c3ccc(F)cc3)c2-c2ccncc2)cc1	31	–
C[C@H](NS(=O)(=O)c1ccc(-c2ccccc2)cc1)c1[nH]nc(-c2ccc(F)cc2)c1-c1ccncc1	91	–
CCS(=O)(=O)N[C@@H](CCC(=O)NC)c1[nH]nc(-c2ccc(F)cc2)c1-c1ccncc1	13	–
Cc1n[nH]c(-c2ccc(C(F)(F)F)cc2)c1-c1ccncc1	–	522 nM
CC(C)=CC(=O)N[C@H](Cc1ccccc1)c1[nH]nc(-c2ccc(F)cc2)c1-c1ccncc1	–	> 1000 nM

Continued, values first:

inhibition [%]	IC50	SMILES
36	–	Cc1ccc(C)c(S(=O)(=O)NCCCc2[nH]nc(-c3ccc(F)cc3)c2-c2ccncc2)c1
–	10000 nM	COc1ccc(CC(=O)NCc2[nH]nc(-c3ccc(F)cc3)c2-c2ccncc2)cc1OC
8	–	CCc1ccc(S(=O)(=O)NCc2[nH]nc(-c3ccc(F)cc3)c2-c2ccncc2)cc1
68	–	O=S(=O)(NCc1[nH]nc(-c2ccc(F)cc2)c1-c1ccncc1)c1ccccc1Br
73	–	C[C@@H](NC(=O)c1c(F)ccc(F)c1F)c1[nH]nc(-c2ccc(F)cc2)c1-c1ccncc1
–	38000 nM	CCCNC(=O)N[C@@H](C)c1[nH]nc(-c2ccc(F)cc2)c1-c1ccncc1
23	–	COc1ccccc1C(=O)N[C@H](C)c1[nH]nc(-c2ccc(F)cc2)c1-c1ccncc1
37	–	C[C@@H](NC(=O)c1cccc(C#N)c1)c1[nH]nc(-c2ccc(F)cc2)c1-c1ccncc1
71	–	Cc1c(Cl)cccc1S(=O)(=O)N[C@H](C)c1[nH]nc(-c2ccc(F)cc2)c1-c1ccncc1
93	–	Cc1ccc(C)c(S(=O)(=O)N[C@H](C)c2[nH]nc(-c3ccc(F)cc3)c2-c2ccncc2)c1
–	4470 nM	COc1ccccc1C(=O)NCc1[nH]nc(-c2ccc(F)cc2)c1-c1ccncc1
–	> 1000 nM	O=S(=O)(NCc1[nH]nc(-c2ccc(F)cc2)c1-c1ccncc1)c1cccc2ccccc12
9	–	Cc1ccccc1C(=O)NCCc1[nH]nc(-c2ccc(F)cc2)c1-c1ccncc1
20	–	O=C(NCCc1[nH]nc(-c2ccc(F)cc2)c1-c1ccncc1)c1cnc2ccccc2n1
29	–	O=C(NCCc1[nH]nc(-c2ccc(F)cc2)c1-c1ccncc1)c1cc(F)cc(F)c1
50	–	Cc1cccc(C)c1NC(=O)N[C@H](C)c1[nH]nc(-c2ccc(F)cc2)c1-c1ccncc1
31	–	O=C(NCc1[nH]nc(-c2ccc(F)cc2)c1-c1ccncc1)c1ccc(Cl)c(Cl)c1
–	3330 nM	O=C(NCc1[nH]nc(-c2ccc(F)cc2)c1-c1ccncc1)C1CC1
72	–	Cc1ccc(F)cc1S(=O)(=O)N[C@@H](C)c1[nH]nc(-c2ccc(F)cc2)c1-c1ccncc1
–	5000 nM	CC(C)S(=O)(=O)NCc1[nH]nc(-c2ccc(F)cc2)c1-c1ccncc1
75	–	C[C@@H](NC(=O)c1ccccc1F)c1[nH]nc(-c2ccc(F)cc2)c1-c1ccncc1
27	–	C[C@@H](NC(=O)Nc1cccc(F)c1)c1[nH]nc(-c2ccc(F)cc2)c1-c1ccncc1
90	–	O=S(=O)(NCc1[nH]nc(-c2ccc(F)cc2)c1-c1ccncc1)c1cccc(Br)c1
36	–	O=C(NCCCc1[nH]nc(-c2ccc(F)cc2)c1-c1ccncc1)NCC1CC1

inhibition [%]	IC50	SMILES
–	660 nM	C[C@@H](NC(=O)c1ccccc1I)c1[nH]nc(-c2ccc(F)cc2)c1-c1ccncc1
33	–	C[C@H](NC(=O)c1ccc(C(F)(F)F)cc1F)c1[nH]nc(-c2ccc(F)cc2)c1-c1ccncc1
34	–	Cc1ccccc1C(=O)N[C@@H](C)c1[nH]nc(-c2ccc(F)cc2)c1-c1ccncc1
87	–	COc1ccc(Cl)cc1S(=O)(=O)N[C@H](C)c1[nH]nc(-c2ccc(F)cc2)c1-c1ccncc1
8	–	O=C(NCc1[nH]nc(-c2ccc(F)cc2)c1-c1ccncc1)c1ccco1
31	–	O=S(=O)(NCCc1[nH]nc(-c2ccc(F)cc2)c1-c1ccncc1)c1ccc(Cl)cc1Cl
22	–	O=C(NCc1[nH]nc(-c2ccc(F)cc2)c1-c1ccncc1)[C@@H]1CCCN1
36	–	C[C@@H](NC(=O)c1cccnc1)c1[nH]nc(-c2ccc(F)cc2)c1-c1ccncc1
39	–	C[C@H](NC(=O)c1ccccc1Br)c1[nH]nc(-c2ccc(F)cc2)c1-c1ccncc1
93	–	C[C@H](NS(=O)(=O)c1cccc(Cl)c1)c1[nH]nc(-c2ccc(F)cc2)c1-c1ccncc1
11	–	O=C(NCCCc1[nH]nc(-c2ccc(F)cc2)c1-c1ccncc1)NCc1cccnc1
81	–	C[C@@H](NS(=O)(=O)c1ccc(F)cc1Cl)c1[nH]nc(-c2ccc(F)cc2)c1-c1ccncc1
21	> 1000 nM	COc1ccc(CC(=O)N[C@H](Cc2ccccc2)c2[nH]nc(-c3ccc(F)cc3)c2-c2ccncc2)cc1OC
21	–	C[C@H](NC(=O)c1cccc(F)c1)c1[nH]nc(-c2ccc(F)cc2)c1-c1ccncc1
–	770 nM	COc1cccc(CC(=O)N2CCC(c3[nH]nc(-c4ccc(F)cc4)c3-c3ccncc3)CC2)c1
30	–	O=S(=O)(NCc1[nH]nc(-c2ccc(F)cc2)c1-c1ccncc1)c1cccc(Cl)c1Cl
36	–	COc1ccc(Br)cc1S(=O)(=O)N1CCC(c2[nH]nc(-c3ccc(F)cc3)c2-c2ccncc2)CC1
54	–	CC(C)OC(=O)NCc1[nH]nc(-c2ccc(F)cc2)c1-c1ccncc1
21	–	O=C(NCc1[nH]nc(-c2ccc(F)cc2)c1-c1ccncc1)N[C@@H]1C[C@@H]1c1ccccc1
52	–	C[C@@H](NC(=O)c1ccc(F)c(F)c1)c1[nH]nc(-c2ccc(F)cc2)c1-c1ccncc1
92	–	Cc1ccccc1S(=O)(=O)N[C@H](C)c1[nH]nc(-c2ccc(F)cc2)c1-c1ccncc1
44	–	C[C@H](NC(=O)c1cc(F)ccc1F)c1[nH]nc(-c2ccc(F)cc2)c1-c1ccncc1
16	–	C[C@@H](NC(=O)c1cc2ccccc2s1)c1[nH]nc(-c2ccc(F)cc2)c1-c1ccncc1
–	190 nM	CC(=O)NCc1[nH]nc(-c2ccc(F)cc2)c1-c1ccncc1
